Test results reported in patent US11447486B2, “2-amino-benzimidazole derivatives and their use as 5-lipoxygenase and/or prostaglandin E synthase inhibitors” (INSTITUT PASTEUR KOREA, priority 2014, dated 2022).

Assays:
human 5-LOX = biological target: T1, human 5-LOX (Homo sapiens, UniProt P09917); test: 5-LOX enzyme activity, fluorescence method (5-HPETE, H2DCFDA); type: biochemical; details: read-out: 5-LO (IC50)
T1 construct: purchased Cayman 60402; host or cells: insect cells (lysate)
T1 sequence (P09917 1-674): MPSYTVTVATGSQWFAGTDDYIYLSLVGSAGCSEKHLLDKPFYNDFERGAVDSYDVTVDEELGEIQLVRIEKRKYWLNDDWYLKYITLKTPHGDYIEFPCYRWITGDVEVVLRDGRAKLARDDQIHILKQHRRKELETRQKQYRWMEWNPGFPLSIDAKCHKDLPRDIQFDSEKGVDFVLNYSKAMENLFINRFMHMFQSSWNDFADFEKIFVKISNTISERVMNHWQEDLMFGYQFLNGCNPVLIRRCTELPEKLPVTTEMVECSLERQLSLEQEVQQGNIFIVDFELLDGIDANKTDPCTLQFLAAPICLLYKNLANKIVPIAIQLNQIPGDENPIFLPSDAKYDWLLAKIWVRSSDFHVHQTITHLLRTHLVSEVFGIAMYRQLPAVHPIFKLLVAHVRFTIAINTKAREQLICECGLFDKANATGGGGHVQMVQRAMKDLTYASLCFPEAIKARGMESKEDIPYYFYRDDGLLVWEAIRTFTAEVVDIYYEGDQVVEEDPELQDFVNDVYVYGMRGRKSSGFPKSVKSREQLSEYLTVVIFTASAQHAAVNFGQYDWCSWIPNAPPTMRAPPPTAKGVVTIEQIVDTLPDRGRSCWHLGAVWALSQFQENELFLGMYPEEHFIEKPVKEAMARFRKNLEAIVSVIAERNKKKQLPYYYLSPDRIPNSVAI
Protocol: The activity of compounds against 5-LOX were determined by measuring LTB4 (leukotriene B4) levels and/or by a fluorescence method. Both approaches are outlined in more detail below;
The compound, in a dose response manner(0.5 nM to 10 uM), and enzyme mixture was pre-incubated for 5 minutes, and the enzymatic reaction was initiated by addition of ATP and arachidonic acid to a final concentration of 100 uM and 3 uM, respectively. […] All steps were carried out at room temperature.

[1] = system: Rat basophilic leukemia (RBL) cells; test: LTB4 secretion assay in RBL (rat basophilic leukemia cells); type: cell-based; details: Rattus norvegicus, RBL
Protocol: Rat basophilic leukemia (RBL) cells (ATCC, Cat #CRL-2256) were maintained in EMEM (ATCC, Cat #30-2003) supplemented with 15% FBS. The day before RBL assay, cells were seeded at a concentration of 2×10^4 cells per well in 96-well plates. The media was replaced with 100 ul of EMEM supplemented with 0.5% FBS and compounds in dose response(5 nM to 100 uM) were added. After 15 min of pre-incubation at 37° C., arachidonic acid and calcium ionophore (A23187) were added to give a final concentration of 2.5 uM and 5 uM, respectively. After a further 10 min incubation at 37° C., culture supernatant was transferred and quantification of LTB4 was done with a Leukotriene B4 EIA kit (Cayman, Cat #520111) as instructed.

Row | Structure (SMILES) | IC50 (human 5-LOX) [µM] | EC50 [1] [µM]
1 | Fc1ccc(CNc2nc3cc(NCc4cnc[nH]4)ccc3[nH]2)cc1 [Compound 29] | < 1 | < 10
2 | CCN(c1ccc2nc(NCc3ccc(Oc4ccc(Cl)cn4)cc3)n(C)c2c1)C1COC1 [Compound 278] | < 1 | < 10
3 | Nc1ccc2nc(N)n(Cc3ccc(Oc4ccc(Cl)cn4)c(Cl)c3)c2c1 [Compound 255] | < 1 | < 10
4 | Cn1c(NCc2ccc(Oc3ccc(Cl)nc3)cc2)nc2ccc(N)cc21 [Compound 280] | < 1 | < 10
5 | Cn1c(NCc2ccc(Oc3ncc(Cl)cn3)cc2F)nc2ccc(N)cc21 [Compound 380] | < 1 | < 10
6 | Nc1ccc2[nH]c(NCc3ccc(F)cc3)nc2c1 [Compound 28] | < 1 | 10 to 20
7 | Nc1ccc2nc(N3CCC(C(=O)c4ccc(OC(F)(F)F)cc4)C3)[nH]c2c1 (stereo not shown) [Compound 178] | < 1 | 10 to 20
8 | Cn1c(N2CCC(Oc3ccc(F)cc3)CC2)nc2cc(N)ccc21 [Compound 35] | 1 to 10 | > 20
9 | CN(C)c1nc2cc(NCc3ccc(-c4ncco4)cc3)ccc2[nH]1 [Compound 220] | < 1 | < 10
10 | COCCN(Cc1ccc(Oc2ccc(Cl)cn2)cc1)c1nc2ccc(N)cc2n1C [Compound 338] | < 1 | > 20
11 | Nc1ccc2nc(NCC(Oc3ccc(Cl)cc3)c3ccccc3)[nH]c2c1 (stereo not shown) [Compound 169] | < 1 | < 10
12 | OCCn1c(NCc2ccc(Oc3ccc(Cl)cn3)cc2)nc2ccc(NC3COC3)cc21 [Compound 257] | < 1 | < 10
13 | Cn1c(NCc2ccc(Oc3ncc(Cl)cn3)cc2)nc2ccc(NCC(O)c3ccc(F)cc3)cc21 (stereo not shown) [Compound 372] | < 1 | < 10
14 | CCC(Nc1nc2ccc(N)cc2n1C)c1ccc(Oc2ncc(Cl)cn2)cc1 (stereo not shown) [Compound 452] | < 1 | < 10
15 | Cn1c(NCCOc2ccc(Cl)c(Cl)c2)nc2ccc(N)cc21 [Compound 60] | < 1 | < 10
16 | CN(C)c1nc2cc(Nc3ccn(C)n3)ccc2n1CCOc1ccc(OC(F)(F)F)cc1 [Compound 46] | > 10 | < 10
17 | CC(C)(O)Cn1c(NCc2ccc(Oc3ccc(Cl)cc3)cc2)nc2ccc(N)cc21 [Compound 209] | < 1 | < 10
18 | Cn1c(NCc2ccc(Oc3ccc4ccc(Cl)cc4n3)cc2)nc2ccc(NC3COC3)cc21 [Compound 420] | < 1 | < 10
19 | Cc1cc(Nc2ccc3nc(NCc4ccc(Oc5ncc(-c6ccc(Cl)cc6)cn5)cc4)n(C)c3c2)n[nH]1 [Compound 467] | < 1 | < 10

Row | Structure (SMILES) | IC50 (human 5-LOX) [µM] | EC50 [1] [µM]
20 | Cn1c(NCc2ccc(Oc3ncc(Cl)cn3)cc2)nc2ccc(NCCN3CCOCC3)cc21 [Compound 379] | < 1 | < 10
21 | CCn1c(NCc2ccc(Oc3ncc(C(F)(F)F)cn3)cc2)nc2ccc(NC3COC3)cc21 [Compound 548] | < 1 | < 10
22 | Cn1c(NCc2ccc(Oc3ccc(Cl)cn3)cc2)nc2ccc(NC(C)(C)CO)cc21 [Compound 325] | < 1 | < 10
23 | Cn1c(NCc2ccc(Oc3ccc4cc(F)ccc4n3)cc2)nc2ccc(N)cc21 [Compound 382] | < 1 | < 10
24 | CN(c1ccc(CNc2nc3ccc(N)cc3n2C)cc1)c1ncc(Cl)cn1 [Compound 463] | < 1 | < 10
25 | COc1cc(Oc2ccc(Cl)cn2)ccc1CNc1nc2ccc(N)cc2n1C [Compound 327] | < 1 | < 10
26 | COCCN(Cc1ccc(Oc2ccc(Cl)cn2)cc1)c1nc2ccc(NC3COC3)cc2n1C [Compound 339] | < 1 | 10 to 20
27 | Nc1ccc2nc(NCc3ccc(C(=O)C4CCCC4)cc3)[nH]c2c1 [Compound 168] | < 1 | < 10
28 | FC(F)(F)Oc1ccc(OCCn2c(N3CCCC3)nc3ccc(N4CCC4)cc32)cc1 [Compound 84] | < 1 | < 10
29 | Cn1c(NCc2ccc(Oc3ccc(Cl)cn3)cc2Cl)nc2ccc(N)cc21 [Compound 285] | < 1 | < 10
30 | Cc1cc(Nc2ccc3nc(NCc4ccc(Oc5ncc(Cl)cn5)cc4)n(C)c3n2)n[nH]1 [Compound 500] | 1 to 10 | 10 to 20
31 | Cn1c(NCc2ccc(Oc3ncc(Cl)cn3)cc2)nc2ccc(NC(N)=O)cc21 [Compound 429] | > 10 | 10 to 20
32 | CN(C(=O)c1ccc(CNc2nc3ccc(N)cc3n2C)cc1)c1ccc(Cl)cn1 [Compound 319] | < 1 | > 20
33 | N#CCCNc1nc2ccc(NC3COC3)cc2n1Cc1ccc(Oc2ccc(Cl)cc2)cc1 [Compound 262] | > 10 | < 10
34 | Cc1cc(Oc2ccc(Cl)cn2)cc(C)c1CNc1nc2ccc(N)cc2n1C [Compound 334] | < 1 | 10 to 20
35 | Cn1c(NCc2ccc(Oc3ccc(Cl)cc3)cc2)nc2ccc(N)cc21 [Compound 167] | < 1 | > 20
36 | CC(Nc1nc2ccc(N)cc2n1C)c1ccc(Oc2ccc(Cl)cn2)cc1 (stereo not shown) [Compound 260] | < 1 | < 10
37 | COc1nc(Oc2ccc(CNc3nc4ccc(N)cc4n3C)cc2)ncc1Cl [Compound 454] | < 1 | 10 to 20
38 | Cn1c(NCc2ccc(Oc3ncc4ccc(Cl)cc4n3)cc2)nc2ccc(N)cc21 [Compound 440] | < 1 | < 10

Row | Structure (SMILES) | IC50 (human 5-LOX) [µM] | EC50 [1] [µM]
39 | Cc1cnc(Oc2ccc(CNc3nc4ccc(NC5COC5)cc4n3C)cc2)nc1 [Compound 349] | < 1 | < 10
40 | Cn1c(NCc2ccc(Oc3nc4cc(Cl)ccc4o3)cc2)nc2ccc(NC3COC3)cc21 [Compound 403] | < 1 | < 10
41 | CC(C)n1c(NCc2ccc(Oc3ccc(Cl)cn3)cc2)nc2ccc(N)cc21 [Compound 258] | < 1 | < 10
42 | OCC(O)CNc1ccc2nc(NCc3ccc(Oc4ccc(Cl)cc4)cc3)[nH]c2c1 (stereo not shown) [Compound 215] | < 1 | < 10
43 | Cn1c(NCc2ccc3c(ccn3-c3ccc(Cl)cn3)c2)nc2ccc(N)cc21 [Compound 451] | < 1 | < 10
44 | Nc1ccc2nc(NCc3ccc(Oc4ccc(Cl)cn4)cc3)n(CCO)c2c1 [Compound 259] | < 1 | < 10
45 | Cn1c(NCc2ccc(Oc3ncc(Cl)cn3)cc2)nc2ccc(Nc3n[nH]cc3C(=O)NC3CC3)cc21 [Compound 483] | < 1 | > 20
46 | Cn1c(NCc2ccc(Oc3cn4ccc(Cl)cc4n3)cc2)nc2ccc(N)cc21 [Compound 442] | < 1 | < 10
47 | COCCn1c(NCc2ccc(Oc3ccc(Cl)cn3)cc2)nc2ccc(N)cc21 [Compound 263] | < 1 | 10 to 20
48 | CCC(Nc1nc2ccc(NC3COC3)cc2n1C)c1ccc(Oc2ccc(C(F)(F)F)cn2)cc1 (stereo not shown) [Compound 549] | < 1 | < 10
49 | Cn1c(NCc2ccc(Oc3ccc(Cl)cn3)cc2)nc2ccc(NC3CN(C(N)=O)C3)cc21 [Compound 404] | < 1 | > 20
50 | Cn1ccc(Nc2ccc3nc(NCc4ccc(Oc5ncc(Cl)cn5)cc4)[nH]c3c2F)n1 [Compound 480] | < 1 | < 10
51 | Nc1ccc2[nH]c(NCc3ccc(N4CCOC(COc5ccc(OC(F)(F)F)cc5)C4)nc3)nc2c1 (stereo not shown) [Compound 222] | < 1 | 10 to 20
52 | Cn1c(NCc2ccc(Oc3ncc(Cl)cn3)cc2)nc2ccc(NC(=N)N)cc21 [Compound 441] | > 10 | > 20
53 | Cn1c(NCc2ccc(Oc3ccccn3)cc2)nc2ccc(NC3COC3)cc21 [Compound 347] | < 1 | < 10
54 | Nc1ccc2[nH]c(NCc3ccc(N4CCC(Oc5ccc(Cl)cc5)CC4)cc3)nc2c1 [Compound 2] | < 1 | 
55 | O=C(NC1CCCC1)c1c[nH]nc1Nc1ccc2[nH]c(NCc3ccc(Oc4ccc(Cl)cc4)cc3)nc2c1 [Compound 19] | < 1 | 
56 | Nc1nc2ccc(Nc3n[nH]cc3C(=O)NC3CCCC3)cc2n1CCOc1ccc(OC(F)(F)F)cc1 [Compound 18] | 1 to 10 | 
